In article PMC12630027, “RALGEF inhibitors suppress RAS-driven pancreatic cancer and metastasis” (The Journal of Biological Chemistry, 2025):

How the values were obtained:
[1] = biological target: T1, full-length RALGDS recombinant protein (Homo sapiens, UniProt Q12967); test: analytical ultracentrifugation; assay type: binding
T1 construct: full length, purified recombinant, purchased from Genscript Biotech
T1 sequence (Q12967 1-914): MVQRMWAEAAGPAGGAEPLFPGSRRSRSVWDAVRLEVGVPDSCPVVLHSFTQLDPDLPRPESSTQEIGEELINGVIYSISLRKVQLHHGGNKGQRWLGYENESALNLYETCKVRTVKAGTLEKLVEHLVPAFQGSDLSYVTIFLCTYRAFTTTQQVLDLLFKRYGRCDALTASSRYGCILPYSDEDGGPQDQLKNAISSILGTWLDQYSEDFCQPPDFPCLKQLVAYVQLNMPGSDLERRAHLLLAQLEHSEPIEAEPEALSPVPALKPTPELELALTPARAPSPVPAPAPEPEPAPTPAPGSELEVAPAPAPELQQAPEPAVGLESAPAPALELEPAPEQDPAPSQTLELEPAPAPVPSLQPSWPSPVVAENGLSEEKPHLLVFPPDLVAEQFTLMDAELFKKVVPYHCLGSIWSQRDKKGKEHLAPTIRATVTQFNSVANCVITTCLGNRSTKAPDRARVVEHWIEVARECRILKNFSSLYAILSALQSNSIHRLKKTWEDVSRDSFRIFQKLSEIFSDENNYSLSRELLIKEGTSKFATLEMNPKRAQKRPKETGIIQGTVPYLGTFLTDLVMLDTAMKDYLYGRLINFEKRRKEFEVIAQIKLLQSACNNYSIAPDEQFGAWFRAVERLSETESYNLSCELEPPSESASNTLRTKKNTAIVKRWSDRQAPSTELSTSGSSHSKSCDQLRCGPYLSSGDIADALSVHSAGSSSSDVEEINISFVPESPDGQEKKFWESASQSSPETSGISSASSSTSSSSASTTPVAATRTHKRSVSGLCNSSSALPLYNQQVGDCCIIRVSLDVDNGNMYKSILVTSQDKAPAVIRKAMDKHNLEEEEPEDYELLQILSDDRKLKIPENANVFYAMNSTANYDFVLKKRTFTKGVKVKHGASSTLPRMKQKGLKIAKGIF

[2] = biological target: T2, RGL3 (Homo sapiens, UniProt Q3MIN7); test: co-immunoprecipitation of H-RAS12V from mixed HEK-293 lysates, Western blot; assay type: biochemical; details: 20 μM (figure legend; 10 μM in methods), HA-H-RAS12V partner, pH 7.5, room temperature; inhibition of RAS/RALGEF complex
T2 construct: Flag-tagged, construct purchased from Genscript, expressed in HEK-293, lysate

[3] = biological target: T3, isolated RA domain of RALGDS; test: microscale thermophoresis, one-site model; details: 50 nM fluorescently labelled RALGDS RA domain, 5% DMSO; average of four experiments; compound solubility may have compromised the assay; read-out: binding affinity
T3 construct: isolated RAS association (RA) domain, C-terminal; fluorescently labelled
Source text: microscale thermophoresis, one-site model on isolated RA domain of RALGDS | obtained binding affinities in the low μM range

[4] = biological target: T4, GFP-tagged RALGDS (Homo sapiens, UniProt Q12967); test: co-immunoprecipitation of H-RAS12V from mixed HEK-293 lysates, Western blot; assay type: biochemical; details: 20 μM (figure legend; 10 μM in methods), HA-H-RAS12V partner, pH 7.5, room temperature; inhibition of RAS/RALGEF complex
T4 construct: full length, GFP-tagged, plasmid gift of CJ Der, expressed in HEK-293, lysate

[5] = biological target: T5, RGL2 (also known as Rlf) (Homo sapiens, UniProt O15211); test: as above; assay type: biochemical; details: 20 μM (figure legend; 10 μM in methods), HA-H-RAS12V partner, pH 7.5, room temperature; inhibition of RAS/RALGEF complex
T5 construct: full length, GFP-tagged, plasmid gift of CJ Der, expressed in HEK-293, lysate

COc1cccc(CNc2nc(CNCc3cccc(F)c3)nc3sc(C)c(C)c23)c1 [C4-180]
Kd [1]: ~1 µM | co-immunoprecipitation of H-RAS12V from mixed HEK-293 lysates, Western blot [2]: C4-180 could act on RALGDS, RGL2 and RGL3 family members | Kd [3]: 2.55 µM | co-immunoprecipitation of H-RAS12V from mixed HEK-293 lysates, Western blot [4]: C4-180 was noticably better at suppressing the interaction of RAS with RALGDS and RGL2 | co-immunoprecipitation of H-RAS12V from mixed HEK-293 lysates, Western blot [5]: C4-180 was noticably better at suppressing the interaction of RAS with RALGDS and RGL2

COc1cccc(CNc2nc(CN(C)Cc3cccc(OC)c3)nc3sc(C)c(C)c23)c1 [C4]
co-immunoprecipitation of H-RAS12V from mixed HEK-293 lysates, Western blot [4]: The complex formation was suppressed. | co-immunoprecipitation of H-RAS12V from mixed HEK-293 lysates, Western blot [5]: The complex formation was suppressed.
